{"source": "patent US11738064B2", "about": "“Pharmaceutical composition for preventing and treating eye diseases, containing as active ingredient, fusion protein in which tissue-penetrating peptide and anti-vascular endothelial growth factor preparation are fused” (ILDONG PHARM CO., LTD., priority 2015, dated 2023)", "molecules": {"B1": {"name": "Sema3A: secreted class 3 semaphorin ligand binding to neuropilin (protein)", "chain": "NYQNGKNNVPRLKLSYKEMLESNNVITFNGLANSSSYHTFLLDEERSRLYVGAKDHIFSFDLVNIKDFQKIVWPVSYTRRDECKWAGKDILKECANFIKVLKAYNQTHLYACGTGAFHPICTYIEIGHHPEDNIFKLENSHFENGRGKSPYDPKLLTASLLIDGELYSGTAADFMGRDFAIFRTLGHHHPIRTEQHDSRWLNDPKFISAHLISESDNPEDDKVYFFFRENAIDGEHSGKATHARIGQICKNDFGGHRSLVNKWTTFLKARLICSVPGPNGIDTHFDELQDVFLMNFKDPKNPVVYGVFTTSSNIFKGSAVCMYSMSDVRRVFLGPYAHRDGPNYQWVPYQGRVPYPRPGTCPSKTFGGFDSTKDLPDDVITFARSHPAMYNPVFPMNNRPIVIKTDVNYQFTQIVVDRVDAEDGQYDVMFIGTDVGTVLKVVSIPKETWYDLEEVLLEEMTVFREPTAISAMELSTKQQQLYIGSTAGVAQLPLHRCDIYGKACAECCLARDPYCAWDGSACSRYFPTAKRRTRRQDIRNGDPLTHCSDLHHDNHHGHSPEERIIYGVENSSTFLECSPKSQRALVYWQFQRRNEERKEEIRVDDHIIRTDQGLLLRSLQQKDSGNYLCHAVEHGFIQTLLKVTLEVIDTEHLEELLHKDDDGDGSKTKEMSNSMTPSQKVWYRDFMQLINHPNLNTMDEFCEQVWKRDRKQRRQRPGHTPGNSNKWKHLQENKKGRNRRTHEFERAPRSV"}}, "key": {"[1]": {"experiment": "Ex-vivo ocular penetration model, extracted eyeballs immersed in FITC-conjugated protein", "assay_type": "in vitro ADME, C57BL/6 mouse", "conditions": "confocal microscope; FIG. 8E", "quoted_text": "The eyeballs were fixed at 4° C. for 4 hours using Davidson's solution (glacial acetic acid:ethyl alcohol:neutralized formalin:distilled water=1:3:2:3), and then the anterior tissue of the conjunctiva was partially cut with scissors, and the retinal metaplasia was minimized in a paraffin slide preparation step. After overnight fixation at 4° C. using 10% (v/v) formalin solution, moisture was removed from the tissues by increasing the concentration of alcohol from low to high concentration using an automatic infiltration machine, followed by transparency with xylene and then paraffin penetration. The paraffin penetration-completed tissue was placed in a base mold to make a paraffin block, and 4 sections were prepared using a microtome. The paraffin sections were unfolded to be attached to slides pre-coated with albumin, poly-L-lysine, and saline in a floating constant-temperature water bath. The tissue slides were deparaffinized and then directly mounted, and then FITC was observed using a confocal microscope to investigate the ocular tissue penetration and distribution.\nThereafter, while unconjugated FITC was removed using PD-10 desalting column, the buffer was changed with PBS, and then the purified product was quantified, and used as a sample for efficacy evaluation."}, "[2]": {"tested_on": "corneal neovascularization", "experiment": "Corneal neovascularization resistance model", "assay_type": "in vivo, C57BL/6 mice", "conditions": "eye drops for 10 days from 10 days after alkaline burn; FIG. 7B", "quoted_text": "The 6-week old female C57BL/6 mice were used. After anesthesia (Zoletil 40 mg/kg+Rompun 5 mg/kg, IP), the NaOH filter paper was placed on the left eye cornea to induce an alkaline burn for 30 seconds, followed by sufficient washing with 40 ml of PBS, thereby constructing corneal neovascularization animal models. […] Each drug was administered through eye drops at a concentration of 5 mg/ml with 5 μl each time, four times a day for 5 days. After the completion of the administration, the eyeballs were extracted, immersed and fixed in 4% paraformaldehyde solution for one hour, and washed with PBS, and then the cornea was isolated using a dissecting microscope. The isolated cornea was additionally fixed in a 4% paraformaldehyde solution for 12 hours. The fixed cornea was washed with PBS, and subjected to reaction in a blocking buffer (PBS, 0.3% BSA, 0.1% Triton X100) at room temperature for 2 hours. A primary antibody (BD Pharmingen) specific to PECAM-1 (CD31) as a vascular endothelial marker and a primary antibody (Millipore) specific to NG-2 as a pericyte marker were reacted overnight in a refrigerator, and secondary fluorescent antibodies (Alexa Fluor488, Alexa Fluor594, Life Technologies) were reacted at room temperature for 4 hours for tissue staining. […]"}, "[3]": {"tested_on": "choroidal neovascularization", "experiment": "Laser-induced choroidal neovascularization (CNV) model", "assay_type": "in vivo, Brown Norway (BN) rats", "conditions": "100 μg/eye intraocular, 10 days after administration; FIG. 10B", "quoted_text": "Seven-week old male Brown Norway (BN) rats (SLC Japan, Tokyo, Japan) were acclimated for one week, and then anesthetized by peritoneal injection of pentobarbital sodium (Hanlim Pharm, 25 mg/kg). Thereafter, the pupil was dilated with 1% tropicamide eye drops, and then six photocoagulation spots were formed around the optic nerve head using a diode laser (wavelength, 532 nm; diameter, 100 μm; power, 150 mW; time period, 0.1 sec). The destruction of Bruch's membrane was verified by the formation of characteristic bubbles. The eyeballs with hemorrhage or no bubbles were excluded from the subsequent experimental procedures. Drugs were administered intraocularly at concentrations appropriate for respective groups using Hamilton syringe (Hamilton, USA). The same amount of vehicle was administered to the CNV group, and 100 μg/eye of ranibizumab was administered as control drug. Subjects with surgical damage caused by drug administration or subjects with lens opacities or the like were excluded from subsequent experimental procedures.\nThe degree of choroidal neovascularization was evaluated 10 days after drug administration. The eyeball of each rat was extracted, and then incised at a region adjacent to the cornea and sclera under a microscope. […] The sizes of subretinal neovascular areas were analyzed using Image J software (NIH, USA)."}, "vascular leakage": {"tested_on": "vascular leakage", "experiment": "Oxygen-induced retinopathy (OIR) model, vascular leakage (dextran fluorescence extravasation)", "assay_type": "in vivo, C57BL/6 mice", "conditions": "10 μg/eye intraocular on P12, evaluated P17; FIG. 11A", "quoted_text": "(§1) Mice burn by crossbreeding of 7- to 8-week old C57BL/6 purchased from Koatech were used as experimental animals. On day 7 after birth, mice (postnatal day 7, P7) were placed in an oxygen chamber, and the oxygen concentration in the chamber was adjusted and maintained at 75% (hyperoxia) for 5 days (P7 to P11). The illumination in the laboratory was turned on or off every 12 hours and the temperature was maintained at 24±2° C. The mice were fed with free access to feed and drinking water. After 5 days, the mice were exposed to inner air (normoxia) out of the chamber for 5 days (P12-P17) to induce retinal angiogenesis. For drug administration, the mice were randomly divided into five groups (10 mice per group) immediately after the exposure to normoxia on P12, as shown in Table 7. Drugs were administered intraocularly at concentrations appropriate for respective groups using Hamilton syringe (Hamilton, USA). The same amount of vehicle was administered to the OIR group, and 10 μg/eye of ranibizumab was administered as control drug. Subjects with surgical damage caused by drug administration or subjects with lens opacities or the like were excluded from subsequent experiment procedures.\nThe degree of retinal edema was evaluated on day 17 after birth. […] The amount of fluorescence extravasated out of vessels was quantitatively analyzed using Image J."}, "[4]": {"tested_on": "retinal neovascularization", "experiment": "Oxygen-induced retinopathy (OIR) model, retinal neovascularization (isolectin B4, tufts)", "assay_type": "in vivo, C57BL/6 mice", "conditions": "10 μg/eye intraocular; FIG. 12B", "quoted_text": "as §1\nIn addition, the extent of neovascularization in the retina was also evaluated. […]"}, "[5]": {"conditions": "half-dose (250 μg) dropped 6 times at 2 hour intervals in rabbits; cited from earlier work"}, "macular degeneration": {"tested_on": "macular degeneration", "conditions": "cited from earlier work"}, "[6]": {"conditions": "cited from earlier work"}, "VEGF-A": {"target": "T1, VEGF-A (Homo sapiens, UniProt P15692)", "T1 sequence (P15692 207-395)": "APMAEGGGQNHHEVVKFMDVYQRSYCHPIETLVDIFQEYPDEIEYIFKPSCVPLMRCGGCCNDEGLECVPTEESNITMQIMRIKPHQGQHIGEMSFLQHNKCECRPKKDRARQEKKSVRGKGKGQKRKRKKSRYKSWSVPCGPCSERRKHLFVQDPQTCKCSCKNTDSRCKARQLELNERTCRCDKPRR", "conditions": "designed property, versus ranibizumab; cited from earlier work"}, "neuropilin 1 (NRP 1)": {"target": "neuropilin 1 (NRP 1)", "sequence (O14786 273-586 limits assumed)": "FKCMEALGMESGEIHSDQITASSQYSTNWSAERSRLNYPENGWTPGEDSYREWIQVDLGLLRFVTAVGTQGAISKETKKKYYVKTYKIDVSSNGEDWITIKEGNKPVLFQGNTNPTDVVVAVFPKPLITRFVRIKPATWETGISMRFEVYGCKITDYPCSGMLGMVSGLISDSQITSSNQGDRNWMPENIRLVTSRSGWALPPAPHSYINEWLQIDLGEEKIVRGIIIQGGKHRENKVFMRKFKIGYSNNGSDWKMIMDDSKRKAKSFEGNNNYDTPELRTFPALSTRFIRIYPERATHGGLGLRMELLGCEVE", "experiment": "SPR (Biacore 2000) assay of binding ability to neuropilin 1 receptor", "conditions": "Table 4, receptor NRP 1, read-out: Affinity, KD", "description": "First, the affinity to a neuropilin receptor was performed on neuropilin 1 (NRP 1). Specifically, surface plasmon resonance (SPR) was performed using Biacore 2000 (GE Healthcare) in order to investigate the binding ability of TPP to the neuropilin 1 domain. Specifically, each neuropilin 1 domain was diluted in 10 mM Na-acetate buffer (pH 4.0), and fixed on CMS sensor chip (GE Healthcare, USA) at about 1,000 response units (RU). […] After the association/dissociation analysis, the CMS chip was regenerated by allowing buffer (20 mM NaOH, 1M NaCl, pH 10.0) to flow at a flow rate of 30 μl/min for 1 minute.\nAfter the Biacore CMS chip was activated with EDC/NHS mixture, target protein NRP1 was diluted in a fixing buffer (10 mM sodium acetate, pH 5.5), and fixed to final 79 Ru through calculation at Rmax: 200."}}}
{"molecule": "ranibizumab", "values": [{"measurement": "distribution in cross-section of the ocular retinal tissue", "setting": "[1]", "result": "mostly present near the sclera"}, {"measurement": "neovessel reducing efficacy, in words", "setting": "[2]", "result": "no significant efficacy"}, {"measurement": "inhibition of (neo)vascularization in comparison with the vehicle group", "setting": "[3]", "result": "about 31%"}, {"measurement": "vascular leakage compared to the vehicle group", "setting": "vascular leakage", "result": "somewhat reduced"}, {"measurement": "degree of neovascularization relative to vehicle group, in words", "setting": "[4]", "result": "the same degree of neovascularization"}, {"measurement": "time to reach the retinal tissue after eye drops", "setting": "[5]", "result": "3 to 7", "unit": "days"}, {"measurement": "patients with macular degeneration showing response", "setting": "macular degeneration; at the time of development", "result": "about 90%"}, {"measurement": "responding patients showing a therapeutic effect, such as eyesight improvement", "setting": "macular degeneration; human, in vivo", "result": 30, "unit": "%"}]}
{"molecule": "conbercept", "values": [{"measurement": "bioavailability at the time of applying eye drops", "setting": "[6]", "result": "less than 5%"}]}
{"molecule": "aflibercept", "values": [{"measurement": "increase in binding ability to VEGF-A", "setting": "VEGF-A", "result": 100, "unit": "fold"}]}
{"molecule": "B1", "values": [{"measurement": "Kd", "setting": "neuropilin 1 (NRP 1)", "result": 27.9, "unit": "nM"}]}
